Reference: the supplement of paper PMC10307832

How the values were obtained:
Assay in all cases: relative viability (nuclei count vs DMSO), 5 days (fraction); higher = more cells survive
[1] = compound: C1CNCCC1C2=CC(=NN2)C3=CC=NC=C3 + CC(=O)c1c(C)c2cnc(Nc3ccc(N4CCNCC4)cn3)nc2n(C2CCCC2)c1=O [Palbociclib] (partner 0.5 µM)
Method in brief: (§1)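 Values are medians from duplicate plates. Each reflects relative viability, defined as the nuclei count of treated wells over that of vehicle wells. Lung cancer cell lines in 1536-well plates were pin-tool dosed one day after seeding with one drug alone or with a fixed anchor-drug dose plus five library-drug doses (not always all listed) in √10 steps, then fixed, stained and imaged at 4× after 5 days.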

[2] = compound: C1CNCCC1C2=CC(=NN2)C3=CC=NC=C3 + N=C(N)NC(=N)NCCc1ccccc1 [Phenformin] (partner 250 µM)
Method in brief: as §1

[3] = compound: C[C@@H](N)c1ccc(C(=O)Nc2ccnc3[nH]ccc23)cc1 + C[C@@H](Oc1cc(-c2cnn(C3CCNCC3)c2)cnc1N)c1c(Cl)ccc(F)c1Cl [Crizotinib] (partner 1 µM)
Method in brief: as §1

Tanzisertib + Bortezomib = compound: O[C@H]1CC[C@H](Nc2ncc3nc(Nc4c(F)cc(F)cc4F)n([C@H]4CCOC4)c3n2)CC1 [Tanzisertib] + CC(C)C[C@H](NC(=O)[C@H](Cc1ccccc1)NC(=O)c1cnccn1)B(O)O [Bortezomib] (partner 0.002 µM)
Method in brief: as §1

Cell Line | relative viability ([1]; first compound 0.08 µM) | relative viability ([1]; first compound 2.53 µM) | relative viability ([1]; first compound 8 µM) | relative viability ([2]; first compound 0.08 µM) | relative viability ([2]; first compound 0.8 µM) | relative viability ([2]; first compound 2.53 µM) | relative viability ([2]; first compound 8 µM) | relative viability ([3]; first compound 0.04 µM) | relative viability ([3]; first compound 0.1265 µM) | relative viability ([3]; first compound 0.4 µM) | relative viability ([3]; first compound 4 µM) | relative viability (Tanzisertib + Bortezomib; first compound 0.08 µM) | relative viability (Tanzisertib + Bortezomib; first compound 0.253 µM) | relative viability (Tanzisertib + Bortezomib; first compound 0.8 µM) | relative viability (Tanzisertib + Bortezomib; first compound 2.53 µM) | relative viability (Tanzisertib + Bortezomib; first compound 8 µM) | relative viability ([1]; first compound 0.8 µM) | relative viability ([3]; first compound 1.265 µM)
NCI-H23 | 0.444 | 0.602 | 0.647 | 0.722 | 0.894 | 0.828 | 0.847 | 0.589 | 0.571 | 0.619 | 0.511 | 1.18 | 0.979 | 0.875 | 1.11 | 1.17 |  | 
NCI-H1651 | 0.456 | 0.521 | 0.525 | 0.351 | 0.3 | 0.333 | 0.344 | 0.921 | 0.822 | 0.916 | 0.837 | 0.897 | 0.917 | 0.925 | 0.875 | 0.853 | 0.493 | 0.898
NCI-H1975 | 0.629 | 0.668 | 0.645 | 0.406 | 0.412 | 0.415 | 0.417 | 1.02 | 0.961 | 0.944 | 0.727 | 0.428 | 0.467 | 0.371 | 0.401 | 0.347 | 0.342 | 0.873
COR-L23 | 0.307 | 0.29 | 0.291 | 0.429 | 0.465 | 0.469 | 0.431 | 0.64 | 0.741 | 0.647 | 0.17 | 1.13 | 0.982 | 0.975 | 1.11 | 1.04 | 0.278 | 0.412
HCC-44 | 0.994 | 1 | 0.97 | 0.31 | 0.194 | 0.276 | 0.322 | 0.82 | 0.776 | 0.86 | 0.652 | 0.934 | 0.938 | 0.912 | 0.936 | 0.999 | 0.997 | 0.995
LOU-NH91 | 0.539 | 0.545 | 0.589 | 0.771 | 0.787 | 0.867 | 0.781 | 0.691 | 0.727 | 0.691 | 0.635 | 0.49 | 0.516 | 0.493 | 0.502 | 0.543 | 0.539 | 0.668
NCI-H441 | 0.227 | 0.251 | 0.22 | 0.634 | 0.947 | 0.831 | 0.753 | 0.807 | 0.764 | 0.749 | 0.565 | 0.53 | 0.409 | 0.407 | 0.815 | 0.471 | 0.222 | 0.948
NCI-H647 | 0.354 | 0.49 | 0.458 | 0.44 | 0.487 | 0.52 | 0.533 | 1.09 | 0.98 | 1.02 | 0.692 | 1.03 | 1.01 | 1 | 1.14 | 1.02 | 0.387 | 0.882
NCI-H1915 | 0.502 | 0.493 | 0.529 | 0.376 | 0.389 | 0.346 | 0.377 | 0.911 | 0.886 | 0.929 | 0.81 | 0.992 | 1.07 | 1 | 0.978 | 0.989 | 0.521 | 
NCI-H1734 | 0.303 | 0.309 | 0.345 | 0.348 | 0.421 | 0.36 | 0.401 | 0.669 | 0.719 | 0.653 | 0.575 | 1.04 | 0.936 | 0.856 | 1.02 | 0.881 | 0.34 | 
NCI-H1993 | 0.704 | 0.698 | 0.738 | 0.497 | 0.488 | 0.547 | 0.533 | 0.867 | 0.743 |  | 0.878 | 1.14 | 1.07 | 1.12 | 1.04 | 0.857 | 0.737 | 0.877
HCC-78 | 0.503 | 0.472 | 0.479 | 0.695 | 0.56 | 0.68 | 0.719 | 0.383 | 0.347 | 0.363 | 0.32 | 0.485 | 0.436 | 0.548 | 0.416 | 0.62 | 0.429 | 0.453
NCI-H2405 | 0.502 | 0.586 | 0.507 | 0.44 | 0.285 | 0.385 | 0.383 | 0.689 | 0.904 | 0.868 | 0.387 | 1.03 | 1.02 | 1.07 | 0.975 | 0.794 | 0.519 | 0.68
HOP-62 | 0.34 | 0.463 | 0.468 | 0.602 | 0.844 | 0.756 | 0.621 | 0.685 | 0.798 | 0.908 | 0.709 | 0.803 | 0.974 | 1.01 | 0.726 | 0.704 | 0.489 | 0.853
NCI-H650 | 0.334 | 0.4 | 0.406 | 0.5 | 0.451 | 0.473 | 0.46 | 0.66 | 0.639 | 0.745 | 0.587 | 0.868 | 1 | 0.87 | 0.945 | 0.366 | 0.352 | 
BEN | 0.447 | 0.45 | 0.433 | 0.312 | 0.172 | 0.243 | 0.271 | 0.952 | 0.828 | 0.918 | 0.675 | 0.944 | 0.954 | 0.781 | 0.85 | 0.729 | 0.47 | 1.09
SW 1573 |  | 0.405 | 0.411 |  | 0.365 | 0.376 | 0.471 | 0.792 | 0.816 | 0.777 | 0.765 | 1.09 | 1.09 | 0.946 | 1.15 | 0.712 | 0.471 | 0.65
ChaGo-K-1 | 0.928 | 0.943 | 0.923 | 0.458 | 0.527 | 0.462 | 0.462 | 1.07 | 1.17 | 1.1 | 0.846 | 0.915 | 1.21 | 1.07 | 0.934 | 0.916 | 0.939 | 
